Our source for the TGI and GI50 values is PubChem BioAssay (NCI).

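Where inhibition never reached the appropriate level, the endpoint shown equals the highest concentration tested. Otherwise, values were interpolated linearly from a five-concentration, 48-hour dose response in 96-well plates. GI50 is the concentration that inhibits growth by half. Definition used: TGI = concentration required for complete inhibition of growth.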 A value given as a limit tells only on which side of the number the result lay.

Some test systems named below: A498 renal; ACHN renal; HCC-2998 colon; HCT-116 colon; KM12 colon; M14 melanoma; NCI-H460 lung; SNB-19 CNS; U251 CNS.
Assay in all cases: growth of human tumour cells (NCI), 48 h

In the case of `CCOC(=O)COc1cccc2c1C(=O)CCO2`, the TGI in the assay with A498 renal, with ACHN renal, in the assay with HCC-2998 colon, in the assay on HCT-116 colon, in the assay with KM12 colon and in the assay with M14 melanoma was above 100 µM each time. Further, the TGI in the assay with NCI-H460 lung, in the assay with SNB-19 CNS and with U251 CNS was above 100 µM throughout.

As to `Oc1ccc(Cl)cc1-c1cc(-c2ccccc2Cl)[nH]n1`, the GI50 in the assay with A498 renal is 95.7 µM; with ACHN renal, 8.17 µM; with HCC-2998 colon it was 2.86 µM; in the assay on HCT-116 colon, 4.6 µM; in the assay with KM12 colon, 2.41 µM; in the assay with M14 melanoma, 25.9 µM. The GI50 in the assay with NCI-H460 lung is 3.47 µM; in the assay on SNB-19 CNS, above 100 µM. The TGI in the assay with A498 renal is above 100 µM; with ACHN renal, above 100 µM; with HCC-2998 colon, 17.4 µM; in the assay on HCT-116 colon, above 100 µM; in the assay on KM12 colon, above 100 µM; in the assay on M14 melanoma, above 100 µM. The TGI with NCI-H460 lung and with SNB-19 CNS was above 100 µM each time.

Regarding `Cc1cnc(NC(=O)C(Cc2ccccc2)NC(=O)c2ccccc2)s1` (centres undefined), the GI50 with A498 renal was 31.1 µM; in the assay on ACHN renal, 3.49 µM; in the assay with HCC-2998 colon it was 1.83 µM; in the assay with HCT-116 colon, 2.96 µM; in the assay on KM12 colon it was 3.82 µM; in the assay on M14 melanoma, 1.75 µM. The values for the GI50 in the assay on NCI-H460 lung, in the assay with SNB-19 CNS and in the assay on U251 CNS were 3.54 µM, 19 µM and 5.25 µM, respectively. Besides, the TGI in the assay with A498 renal was above 100 µM; in the assay on ACHN renal it was 16.9 µM; in the assay with HCC-2998 colon, 5 µM; in the assay with HCT-116 colon, 11.9 µM; in the assay with KM12 colon, 14.7 µM; in the assay with M14 melanoma, 3.95 µM. Also, the values for the TGI in the assay on NCI-H460 lung, with SNB-19 CNS and in the assay with U251 CNS were 13.8 µM, 48.6 µM and 19.3 µM, respectively.

Consider `COc1ccc2c(c1)C1(C=N2)CCN(C(C)=O)CC1`, for which the TGI in the assay on A498 renal, in the assay with ACHN renal, in the assay on HCC-2998 colon, with HCT-116 colon, with KM12 colon and in the assay with M14 melanoma was above 100 µM in each case. Also, the TGI with NCI-H460 lung and in the assay on U251 CNS was above 100 µM in each case.

As for `C=CCc1cc(OC)c2c(c1)C(O)CC(c1ccc(OC)c(OC)c1)O2` (centres undefined), the TGI with ACHN renal, in the assay on HCC-2998 colon, with HCT-116 colon, with KM12 colon, with M14 melanoma and in the assay on NCI-H460 lung was above 100 µM throughout. Besides, the TGI with SNB-19 CNS and in the assay with U251 CNS was above 100 µM in each case.

Consider `COC(=O)[C@@]12C3=NO[C@]1(C(=O)OC)C(O[Si](C)(C)C(C)(C)C)[C@H]1OC(C)(C)O[C@H]1[C@@H]2C(OCc1ccccc1)CC3` (some centres undefined), for which the TGI with A498 renal is above 100 µM; with ACHN renal, 28 µM; in the assay on HCC-2998 colon, above 100 µM; in the assay with HCT-116 colon, above 100 µM; in the assay with KM12 colon, above 100 µM; in the assay with M14 melanoma, above 100 µM. Also, the TGI is 23.7 µM in the assay on NCI-H460 lung, 99.8 µM in the assay on SNB-19 CNS and above 100 µM in the assay with U251 CNS.

As to `O=C(O)CCSC(=O)Nc1cccc(F)c1`, the TGI with A498 renal is above 100 µM; in the assay with ACHN renal, above 100 µM; with HCC-2998 colon, above 100 µM; with KM12 colon, above 100 µM; in the assay on M14 melanoma, 45.4 µM; with NCI-H460 lung, above 100 µM. Moreover, the TGI in the assay on SNB-19 CNS and in the assay with U251 CNS was above 100 µM each time.

As for `COc1cc2cnc3c4cc(OC(C)C)c(OC)cc4ccc3c2cc1OC`, the TGI in the assay with A498 renal, with ACHN renal, with HCC-2998 colon, in the assay on HCT-116 colon, in the assay on KM12 colon and with M14 melanoma was above 100 µM each time. Besides, the TGI in the assay with NCI-H460 lung, with SNB-19 CNS and in the assay with U251 CNS was above 100 µM throughout.

As for `COc1ccccc1NC(=O)CC(=O)n1nc(C)c(N=Nc2ccccc2C(=O)O)c1C`, the TGI with A498 renal, in the assay on HCC-2998 colon, in the assay on HCT-116 colon, with KM12 colon, with M14 melanoma and in the assay on NCI-H460 lung was above 100 µM in each case. The TGI in the assay with SNB-19 CNS and in the assay with U251 CNS was above 100 µM in each case.

As to `O=[S@@]1Nc2ccc(Br)cc2S1`, the TGI is above 100 µM with ACHN renal; above 100 µM with HCT-116 colon; above 100 µM in the assay with KM12 colon; above 100 µM with M14 melanoma; 39.3 µM in the assay on SNB-19 CNS; above 100 µM in the assay with U251 CNS.

Turning to `CSCCCN(CCCSC)CCCSC`, the TGI in the assay with HCC-2998 colon, in the assay with HCT-116 colon, with KM12 colon, in the assay with M14 melanoma, with NCI-H460 lung and in the assay on SNB-19 CNS was above 100 µM throughout. Also, the TGI in the assay with U251 CNS is above 100 µM.

On to `COc1cccc(NC(=O)CC(=O)n2nc(C)c(N=Nc3ccccc3)c2C)c1`, for which the TGI in the assay on A498 renal, in the assay on ACHN renal, with HCC-2998 colon, with HCT-116 colon, in the assay on KM12 colon and with M14 melanoma was above 100 µM in each case. Further, the TGI in the assay on SNB-19 CNS and in the assay with U251 CNS was above 100 µM throughout.
